# Assay results as given in patent US10934263B2, “Charged ion channel blockers and methods for use” (Nocion Therapeutics, Inc., priority 2019, dated 2021).
# What was measured:
# NaV1.7 [1] = biological target: T1, NaV1.7 (Homo sapiens, UniProt Q15858); experiment: Whole cell patch clamp, internal block of NaV1.7 current (compound in internal solution); type: cell-based; settings: compound applied internally, manual patch clamp, read-out: Nav1.7 Intracellular Inhibition
# T1 construct: expressed in transfected cells; tetracycline-inducible, kept under hygromycin and blasticidin
# T1 sequence (Q15858 whole entry): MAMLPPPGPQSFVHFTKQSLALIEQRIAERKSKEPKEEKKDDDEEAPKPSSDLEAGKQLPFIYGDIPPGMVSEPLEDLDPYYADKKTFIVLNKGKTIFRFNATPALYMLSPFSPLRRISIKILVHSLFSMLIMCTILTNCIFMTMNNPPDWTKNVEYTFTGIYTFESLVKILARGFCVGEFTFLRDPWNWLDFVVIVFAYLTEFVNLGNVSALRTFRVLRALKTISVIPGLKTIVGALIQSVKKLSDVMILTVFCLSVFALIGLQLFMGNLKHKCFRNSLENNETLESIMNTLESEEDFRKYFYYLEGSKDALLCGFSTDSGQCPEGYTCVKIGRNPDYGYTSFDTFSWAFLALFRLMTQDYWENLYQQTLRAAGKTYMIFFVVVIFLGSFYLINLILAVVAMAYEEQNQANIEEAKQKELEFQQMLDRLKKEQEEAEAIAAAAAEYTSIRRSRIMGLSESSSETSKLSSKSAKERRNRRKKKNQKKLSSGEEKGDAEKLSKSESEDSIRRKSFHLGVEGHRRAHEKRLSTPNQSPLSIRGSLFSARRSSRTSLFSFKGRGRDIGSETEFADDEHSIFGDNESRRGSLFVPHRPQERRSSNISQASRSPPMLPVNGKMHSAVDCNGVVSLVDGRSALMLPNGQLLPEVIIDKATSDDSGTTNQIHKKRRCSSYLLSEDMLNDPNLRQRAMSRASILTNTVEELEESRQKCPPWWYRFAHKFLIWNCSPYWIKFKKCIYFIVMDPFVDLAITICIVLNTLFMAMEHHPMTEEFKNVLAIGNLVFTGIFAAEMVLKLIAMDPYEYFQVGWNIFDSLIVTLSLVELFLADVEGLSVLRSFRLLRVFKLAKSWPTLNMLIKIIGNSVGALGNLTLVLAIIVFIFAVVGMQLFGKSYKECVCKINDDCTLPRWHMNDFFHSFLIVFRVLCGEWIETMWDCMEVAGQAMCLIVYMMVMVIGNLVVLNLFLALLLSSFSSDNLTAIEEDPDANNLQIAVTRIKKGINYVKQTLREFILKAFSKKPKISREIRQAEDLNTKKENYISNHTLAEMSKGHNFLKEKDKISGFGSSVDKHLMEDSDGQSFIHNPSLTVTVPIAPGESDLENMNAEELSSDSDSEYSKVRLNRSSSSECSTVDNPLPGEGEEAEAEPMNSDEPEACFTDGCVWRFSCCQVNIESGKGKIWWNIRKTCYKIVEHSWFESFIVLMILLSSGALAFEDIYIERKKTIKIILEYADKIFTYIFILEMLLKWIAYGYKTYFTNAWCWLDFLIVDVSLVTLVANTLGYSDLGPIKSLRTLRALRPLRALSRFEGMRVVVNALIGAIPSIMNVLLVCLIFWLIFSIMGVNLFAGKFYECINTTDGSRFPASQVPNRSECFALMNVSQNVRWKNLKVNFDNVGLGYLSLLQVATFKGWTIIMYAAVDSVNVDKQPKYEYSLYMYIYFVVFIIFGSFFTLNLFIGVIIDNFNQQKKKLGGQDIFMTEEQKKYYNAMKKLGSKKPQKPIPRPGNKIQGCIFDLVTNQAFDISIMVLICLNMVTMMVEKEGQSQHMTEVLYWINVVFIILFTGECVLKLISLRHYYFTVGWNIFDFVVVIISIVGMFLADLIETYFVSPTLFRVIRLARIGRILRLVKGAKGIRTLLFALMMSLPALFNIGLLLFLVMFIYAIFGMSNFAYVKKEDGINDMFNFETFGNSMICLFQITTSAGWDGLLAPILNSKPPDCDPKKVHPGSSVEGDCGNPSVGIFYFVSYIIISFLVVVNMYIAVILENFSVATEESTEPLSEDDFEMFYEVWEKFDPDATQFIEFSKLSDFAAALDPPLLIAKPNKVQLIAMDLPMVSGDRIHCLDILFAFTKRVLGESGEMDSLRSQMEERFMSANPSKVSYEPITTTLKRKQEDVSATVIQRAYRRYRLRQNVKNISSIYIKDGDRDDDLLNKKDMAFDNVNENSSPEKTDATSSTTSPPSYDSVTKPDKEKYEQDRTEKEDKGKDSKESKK
# Procedure, shortened: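 Tetracycline-induced NaV1.7 cells, whole-cell patch clamp at room temperature with compound in CsCl internal solution (pH 7.2), Ringer bath (pH 7.4). Held at −100 mV, steps to −20 mV; after baseline, four 30-s 5 Hz trains. Peak inward current at end of last train divided by baseline gives fraction remaining.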
# NaV1.7 [2] = biological target: T1, NaV1.7; experiment: Whole cell patch clamp, external block of NaV1.7 current (compound in external solution); type: cell-based; settings: compound applied externally, read-out: Nav1.7 Extracellular Inhibition; for inhibition at 30 µM: % inhibition at test concentration 30 μM
# Method: Representative compounds of the invention were synthesized according to the described methods and tested for the ability to inhibit voltage-gated sodium channels.
# NaV1.7 was expressed upon induction with tetracycline. Cells were cultured in DMEM containing 10% dialyzed Fetal Bovine Serum (VWR, Radnor, Pa.), 1% Glutamax (VWR, Radnor, Pa.), 1% Penicillin-Streptomycin (VWR, Radnor, Pa.), 100 mg/L Hygromycin (Thermo Fisher Scientific, Waltham, Mass. and 5 mg/L Blasticidin (Alfa Aesar, Haverhill, Mass.). Cells were grown and maintained at 37° C. in a humidified environment containing 10% CO2 in air. Cells were detached from the culture flask for passage and harvested using 0.05% Trypsin-EDTA (Thermo Fisher Scientific, Waltham, Mass.). To induce NaV1.7, cells were induced with tetracycline (0.1-1 μg/mL, IBI Scientific, Peosta, Iowa) the day before recording and plated onto 24-well plates. Cells were washed with DPBS (VWR, Radnor, Pa.), trypsinized and then triturated five times in 10 mL of growth media to break apart cell aggregates. For one 24-well plate, 2 mL of cell suspension was mixed with 23 mL of fresh growth media and 0.1-1 μg/mL tetracycline added. 1 ml of mixed media with cells was then added to each well of a 24-well plate, with a 12 mm coverslip already placed in the bottom of the well. Cells were then incubated in 37° C. and 10% CO2 overnight.
# The intracellular solution contained the following (in mM) CsCl 135, NaCl 10, EGTA 10, HEPES 10, MgCl2 2, adjusted to pH 7.2 with CsOH. The external solution was a normal Ringer solution containing (in mM) NaCl 155, HEPES 10, glucose 10, KCl 3.5, CaCl2 1.5, MgCl2 1 adjusted to pH 7.4 with NaOH. CsCl is from Alfa Aesar, Haverhill, Mass. All other chemicals are from Sigma-Aldrich, St. Louis, Mo. In order to test the degree of internal block by test compounds the compounds were dissolved in internal solution at the indicated test concentration. […] In order to test the degree of external block by test compounds the compounds were dissolved in external solution at the indicated test concentration.
# 18-24 hours after cells were induced with tetracycline, coverslips were placed into a chamber filled with Normal Ringer solution at room temperature and the chamber placed on a microscope. Pipettes were pulled from borosilicate glass on a P97 puller (Sutter Instrument, Novato, Calif.) and polished with a MF-830 Microforge (Narishige International USA, Inc, Amityville, N.Y.) to have a resistance of 1.5-2.5 MΩ when filled with CsCl internal solution at room temperature. Healthy cells (those that are round and translucent with no visible blemishes) were chosen for seal formation. A seal was formed between the pipette and the cell, and a brief pulse of suction was used to “break in” and establish the whole-cell configuration. The membrane potential was held at −100 mV before the voltage protocol began. Only cells with series resistance between 1.5-5 MΩ were retained for analysis. The voltage protocol was as follows: Cells were held at −100 mV for 12 ms followed by a hyperpolarizing step to −105 mV for 12 ms to monitor the leak. Cells were then stepped back to −100 mV for 40 ms. Cells were then depolarized to −20 mV for 10 ms and then returned to −100 mV for 26 ms.
# Once the recording was started, the voltage protocol was run at 30 second intervals for 5 minutes to get a stable baseline. This is followed by 5 Hz stimulation of the same voltage protocol run until the end of experiment. […] The test compound is added for 5 minutes before washing out with normal Ringer's solution. Currents were recorded using PatchMaster software with Heka EPC10 (HEKA Electronics, Lambrecht, Germany). Only cells with inward current amplitudes at −20 mV between 400 pA and 4 nA were accepted. In addition, cells having leak currents greater than 10% of their current amplitudes were discarded. […]
# [3] = PAMPA membrane permeability assay; type: in vitro ADME; settings: PAMPA permeability coefficient, GIT lipid, buffer pH 7.4, 4 hours incubation
# Procedure, shortened: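 Passive permeability across GIT lipid-coated artificial membrane; compounds at 50 μM in pH 7.4 buffer in donor wells, incubated 4 h. Donor, acceptor and reference concentrations read by UV spectroscopy, permeability coefficient calculated from spectral AUCs.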
inhibition at 10 µM (NaV1.7 [1]) [%],inhibition at 32 µM (NaV1.7 [1]) [%],inhibition at 30 µM (NaV1.7 [2]) [%],PAMPA (10^−6 cm/s) [3],inhibition at 100 µM (NaV1.7 [2]; % inhibition at test concentration 100 μM) [%],"inhibition at 1000 µM (NaV1.7 [2]; % inhibition at test concentration 1,000 μM) [%]",Compound
70 to 95,70 to 95,< 40,+ (<0.1 10^−6 cm/s),–,–,CCc1ccc[n+](CC(=O)Nc2c(C)cccc2C)c1.[Br-] [Compound 17A]
70 to 95,–,40 to 70,+ (<0.1 10^−6 cm/s),–,–,CCOC(=O)c1ccc[n+](CC(=O)Nc2c(C)cccc2C)c1.[Br-] [Compound 25A]
–,70 to 95,< 40,+ (<0.1 10^−6 cm/s),–,–,CCc1cccc[n+]1CC(=O)Nc1c(C)cccc1C.[Br-] [Compound 13A]
> 95,> 95,–,++ (0.1-2.0 10^−6 cm/s),< 40,–,Cc1cccc(C)c1NC(=O)C[n+]1ccccc1-c1ccccc1.[Br-] [Compound 16A]
> 95,> 95,< 40,+ (<0.1 10^−6 cm/s),–,–,"Cc1cccc(C)c1NC(=O)C[n+]1cccc(-c2ccccc2)c1.[Br-] [Compound 12A, 1-(2-((2,6-dimethylphenyl)amino)-2-oxoethyl)-3-phenylpyridin-1-ium bromide]"
–,> 95,–,++ (0.1-2.0 10^−6 cm/s),–,40 to 70,"Cc1cccc(C)c1NC(=O)C[n+]1c(C)cccc1C.[Br-] [Compound 6A, 1-(2-((2,6-dimethylphenyl)amino)-2-oxoethyl)-2,6-dimethylpyridin-1-ium bromide]"
